Like-named read-outs stand apart in the source and are kept apart here.
Tests used:
[1] = system: human pancreatic cancer cells (PANC-1); assay: cells
Text: In addition, for the portion of the living tissue, the human pancreatic cancer cells (PANC-1) are used instead of the neural cells as an example for illustration. Furthermore, the living pancreatic cancer cells are also placed in the culture solution of petri dish in order to perform the heat treatment method of the present invention.
In addition, for the portion of the living tissue, the human pancreatic cancer cells (PANC-1) are used as an example for illustration. Furthermore, the living pancreatic cancer cells are also placed in the culture solution of petri dish in order to perform the heat treatment method of the present invention.
The control group refers to the comparison group without the heat treatment according to the method of the present invention.

[2] = system: human neural cells (SH-SY5Y); assay: cell viability of human neural cells (SH-SY5Y) with/without cyclic heat treatment; conditions: hydrogen peroxide processing

`Nc1ccn([C@@H]2O[C@H](CO)[C@@H](O)C2(F)F)c(=O)n1` [Gem, gemcitabine] was tested, and the viability at 5 µM ([1]; PANC-1, read-out: cell viability, PANC-1, 5 μM Gem, ten times of heat treatment, 43.5° C. / approximately 36° C. (FIG. 11)) was 55% and the viability at 5 µM ([1]; PANC-1, read-out: cell viability, PANC-1, 5 μM Gem, without the heat treatment (FIG. 11)) was 90%.

Work on `OO` [hydrogen peroxide] yielded a cell viability ([2]; control group without the heat treatment (FIG. 5A, 5B)) of 55%, a cell viability ([2]; eight times of heat treatment, max 40.9° C. / min 39.4° C. (FIG. 5A)) of 70% and a cell viability ([2]; eight times of heat treatment, max 42.0° C. / min 40.3° C. (FIG. 5B)) of 82%.

`O=C(/C=C/c1ccc(O)c(O)c1)O[C@@H]1C[C@](O)(C(=O)O)C[C@@H](O)[C@H]1O` [CGA, chlorogenic acid] gave a viability at 200 µM ([1]; PANC-1, read-out: cell viability, PANC-1, 200 μM CGA, ten times of heat treatment, 43.5° C. / approximately 36° C. (FIG. 10B)) of 53% and a viability at 200 µM ([1]; PANC-1, read-out: cell viability, PANC-1, 200 μM CGA, without the heat treatment (FIG. 10B)) of 88%.

— patent US11753634B2, “Method and apparatus for applying heat to living tissue” (NATIONAL TAIWAN UNIVERSITY, priority 2019, dated 2023)
